Source: patent publication US20240016781A1, “TREATMENT OF KRAS MUTANT CANCERS” (MEI Pharma, Inc., priority 2020, published 2024)
“And” between values parts separate entries of the source, which are not always exact repeats. Equal entries are not always repeated. Where two headings read alike, the source gives them in different places.

How the values were obtained:
Experiment in all cases: 72-hour CellTiter-Glo 2.0 growth inhibition screen (single agent, 9x9 combination dose matrix)
Assay type in all cases: cell-based
KYSE-410 = conditions: for EC50 / Emax: Homo sapiens; for EC50: KYSE-410, 72 h; for EC50 / Emax / Response Area: KYSE-410, Esophageal
Panc 04.03 = conditions: for Response Area: Panc 04.03, Pancreas
SW48 KRAS (G12C/+) = conditions: for Response Area: Colorectal
SW48 = conditions: for EC50 / Emax: Homo sapiens; for EC50: SW48, 72 h; for EC50 / Emax / Response Area: SW48, Colorectal
SW837 = conditions: for EC50: SW837, 72 h
[1] = Additional Single Agent Responses (inhibition, % I), 72 h
[2] = growth inhibition (GI) curve, single agent, 72 h
[3] = Additional Single Agent Responses, 72 h, read-out: Max Response (% I)
[4] = growth inhibition (GI), single agent, 72 h, read-out: Max Response (% GI)
[5] = KYSE-410 (KRAS G12C), enhancer + MEI-522 (Voruciclib), 72 h
[6] = growth inhibition (GI), AUC, single agent, 72 h
[7] = enhancer combined with MEI-522 (Voruciclib), KYSE-410 (Esophageal), 72 hours, inhibition data
[8] = Panc 04.03 (KRAS G12D), enhancer + MEI-522 (Voruciclib), 72 h
[9] = enhancer combined with MEI-522 (Voruciclib), Panc 04.03 (Pancreas), 72 hours, inhibition data
[10] = SW48 KRAS (G12C/+), enhancer + MEI-522 (Voruciclib), 72 h
[11] = enhancer combined with MEI-522 (Voruciclib), SW48 KRAS (G12C/+) (Colorectal), 72 hours, inhibition data
[12] = SW48 (KRAS WT), enhancer + MEI-522 (Voruciclib), 72 h
[13] = enhancer combined with MEI-522 (Voruciclib), SW48 (Colorectal), 72 hours, inhibition data
[14] = Homo sapiens, SW837, Colorectal, growth inhibition (GI) curve, single agent, 72 h
[15] = SW837 (KRAS G12C), enhancer + MEI-522 (Voruciclib), 72 h
[16] = enhancer combined with MEI-522 (Voruciclib), SW837 (Colorectal), 72 hours, inhibition data

For `C=CC(=O)N1CCN(c2nc(=O)n(-c3c(C)ccnc3C(C)C)c3nc(-c4c(O)cccc4F)c(F)cc23)[C@@H](C)C1` [AMG510], the EC50 (KYSE-410; [1]) was 5.8 nM, the EC50 (KYSE-410; [2]) was 6 nM and the Emax (KYSE-410; [3]) was 20%. For the same compound, the Emax (KYSE-410; [4]) was 24%, the “Best CI” value (KYSE-410; [5]) was 1.14 and the “Bliss Volume” value (KYSE-410; [5]) was 1.47. The HSA volume (KYSE-410; [5]) was 2.26, the “Loewe Volume” value (KYSE-410; [5]) was 2.48 and the “Synergy Score” value (KYSE-410; [5]) was 1.71. The “Response Area” value (KYSE-410; [1]) was 0.88, the “Response Area” value (KYSE-410; [6]) was 1.06 and the “Best CI” value (KYSE-410; [7]) was 1.14. The “Bliss Volume” value (KYSE-410; [7]) was 1.06, the HSA volume (KYSE-410; [7]) was 1.87 and the “Loewe Volume” value (KYSE-410; [7]) was 2.13. The “Synergy Score” value (KYSE-410; [7]) was 1.19, the Best CI Level (KYSE-410; enhancer combined with MEI-522 (Voruciclib), KYSE-410 (Esophageal), 72 hours, inhibition data, unit assumed) was 45% and the EC50 (Panc 04.03; Homo sapiens, Panc 04.03, 72 h) was 3000 nM. The Emax (Panc 04.03; Homo sapiens, Panc 04.03, 72 h, read-out: Max Response (% GI)) was 25%, the Emax (Panc 04.03; Homo sapiens, Panc 04.03, 72 h, read-out: Max Response (% I)) was 19% and the “Best CI” value (Panc 04.03; [8]) was 0.51. For the same compound, the “Bliss Volume” value (Panc 04.03; [8]) was 2.52, the HSA volume (Panc 04.03; [8]) was −2.59 and the “Loewe Volume” value (Panc 04.03; [8]) was 2.70. The “Synergy Score” value (Panc 04.03; [8]) was 3.01, the “Response Area” value (Panc 04.03; [1]) was 0.00 and the “Response Area” value (Panc 04.03; [6]) was 0.00. For the same compound, the “Best CI” value (Panc 04.03; [9]) was 0.60, the “Best CI Level” value (Panc 04.03; [9]) was 20 and the “Bliss Volume” value (Panc 04.03; [9]) was 0.79. For the same compound, the HSA volume (Panc 04.03; [9]) was −2.11, the “Loewe Volume” value (Panc 04.03; [9]) was 1.18 and the “Synergy Score” value (Panc 04.03; [9]) was 1.06. The HSA volume (SW48 KRAS (G12C/+)) was 5.42 and 3.57, the “Loewe Volume” value (SW48 KRAS (G12C/+)) was 4.73 and the EC50 (SW48 KRAS (G12C/+); Homo sapiens, SW48, 72 h) was 2.1 nM. For the same compound, the Emax (SW48 KRAS (G12C/+); Homo sapiens, SW48, 72 h, read-out: Max Response (% GI)) was 36%, the Emax (SW48 KRAS (G12C/+); Homo sapiens, SW48, 72 h, read-out: Max Response (% I)) was 29% and the “Response Area” value (SW48 KRAS (G12C/+); SW48 KRAS (G12C/+), Additional Single Agent Responses (inhibition, % I), 72 h) was 1.47. For the same compound, the “Response Area” value (SW48 KRAS (G12C/+); SW48 KRAS (G12C/+), growth inhibition (GI), AUC, single agent, 72 h) was 1.78, the “Best CI” value (SW48 KRAS (G12C/+); [10]) was 0.36 and the “Synergy Score” value (SW48 KRAS (G12C/+); [10]) was 5.97. For the same compound, the “Best CI” value (SW48 KRAS (G12C/+); [11]) was 0.62, the “Best CI Level” value (SW48 KRAS (G12C/+); [11]) was 60 and the EC50 (SW48; [1]) was 2710 nM. For the same compound, the EC50 (SW48; [2]) was 2720 nM, the Emax (SW48; [3]) was 14% and the Emax (SW48; [4]) was 17%. For the same compound, the “Best CI” value (SW48; [12]) was 0.46, the “Bliss Volume” value (SW48; [12]) was 2.71 and the HSA volume (SW48; [12]) was 0.73. The “Loewe Volume” value (SW48; [12]) was 2.40, the “Synergy Score” value (SW48; [12]) was 4.05 and the “Response Area” value (SW48; [1]) was 0.48. For the same compound, the “Response Area” value (SW48; [6]) was 0.61, the “Best CI” value (SW48; [13]) was 0.50 and the “Bliss Volume” value (SW48; [13]) was 1.20. For the same compound, the HSA volume (SW48; [13]) was 0.35, the “Loewe Volume” value (SW48; [13]) was 1.24 and the “Synergy Score” value (SW48; [13]) was 1.36. It also gave a Best CI Level (SW48; enhancer combined with MEI-522 (Voruciclib), SW48 (Colorectal), 72 hours, inhibition data, unit assumed) of 35%, an EC50 (SW837; Homo sapiens, SW837, Colorectal, Additional Single Agent Responses (inhibition, % I), 72 h) of 9.9 nM and an EC50 (SW837; [14]) of 10.4 nM. For the same compound, the Emax (SW837; Homo sapiens, SW837, Colorectal, Additional Single Agent Responses, 72 h, read-out: Max Response (% I)) was 37%, the GI50 (SW837; [14]) was 162 nM and the Emax (SW837; Homo sapiens, SW837, Colorectal, growth inhibition (GI), single agent, 72 h, read-out: Max Response (% GI)) was 56%. For the same compound, the “Best CI” value (SW837; [15]) was 0.72, the “Bliss Volume” value (SW837; [15]) was 7.24 and the HSA volume (SW837; [15]) was 6.16. The “Loewe Volume” value (SW837; [15]) was 6.02, the “Synergy Score” value (SW837; [15]) was 6.03 and the “Response Area” value (SW837; SW837, Colorectal, Additional Single Agent Responses (inhibition, % I), 72 h) was 1.79. For the same compound, the “Response Area” value (SW837; SW837, Colorectal, growth inhibition (GI), AUC, single agent, 72 h) was 2.67, the “Best CI” value (SW837; [16]) was 0.64 and the “Best CI Level” value (SW837; [16]) was 65. For the same compound, the “Bliss Volume” value (SW837; [16]) was 2.98, the HSA volume (SW837; [16]) was 4.27 and the “Loewe Volume” value (SW837; [16]) was 4.27. For the same compound, the “Synergy Score” value (SW837; [16]) was 2.77.
